Assay results: patent publication US9820996B2, “Preparation method for antithyroid ointment for external application” (priority 2014, dated 2017)
Entries after “also recorded” stand apart in the source; their conditions may differ.

Tested on: hyperthyroidism patients
Assay: Typical cases of clinical treatment (case reports)
Assay type: in vivo, human
Settings: propylthiouracil and methimazole taken successively
Source text: The present example includes following typical cases of clinical treatment.

Row | Compound | adverse reaction that led to discontinuing oral treatment (patient history)
1 | Cn1cc[nH]c1=S [methimazole] | severe drug-induced liver damage; also recorded: severe neutropenia; also recorded: acute urticaria
2 | CCCc1cc(=O)[nH]c(=S)[nH]1 [propylthiouracil] | severe drug-induced liver damage; also recorded: severe neutropenia; also recorded: acute urticaria
